The record followed here is article PMC9027131, “Dual PI3K/Akt Inhibitors Bearing Coumarin-Thiazolidine Pharmacophores as Potential Apoptosis Inducers in MCF-7 Cells” (Pharmaceuticals, 2022).

For experiment [1], the system named is caspase-9. Kind of experiment: Cleaved caspase-9 level by ELISA in MCF-7 cells. The format is cell-based, human. Particulars: MCF-7, 48 h; control 2.712 ± 0.09; means ± sd, n = 3. Here is the method:
Apoptosis is a programmed cell death modality that includes an array of steps such as activation of caspases alongside endonucleases leading to DNA cleavage, eventually causing the formation of apoptotic bodies. Caspases are classified into effector caspases, such as caspase-3, -6, and -7, and initiator caspases, including either caspase-2, -8, and -10 (extrinsic pathway) or caspase-9 (intrinsic pathway).
The level of cleaved caspase-9 was assessed in both untreated/control MCF-7 cells and following VIIb treatment using DRG® Caspase-9 (human) ELISA (EIA-4860), following the manufacturer’s instructions (DRG International Inc., Springfield, NJ, USA). The data were means ± sd; n = 3.
In general terms: An ELISA detects its analyte on a solid surface through an enzyme-linked reagent.

Experiment [2] has as its target T1, PI3K-γ (Homo sapiens, UniProt P48736).
T1 construct: purchased BPS Bioscience, Inc 79803
Briefly: PI3Kγ (p110γ/PIK3R5) enzyme inhibition assay kit. The format is biochemical. Conditions: means ± sd, n = 3; read-out: IC50 (µM) PI3K-γ Isoform. From the text: Accumulating evidence highlighted that PI3K signaling pathway upregulation is highly implicated in breast cancer development and disease progression as well as resistance to hormones and cytotoxic therapy. Therefore, it is essential to elucidate the effect of the novel compound, VIIb, on the PI3K/Akt signaling pathway by using in vitro PI3K class 1A enzyme inhibition assay conducted on PI3K-α and PI3K-γ isoforms as well as an Akt-1 enzyme inhibition assay. […] Furthermore, targeting the PI3K-γ isoform in breast cancer could contribute to enhancing the anti-tumor immunity.
The in vitro inhibition of PI3K and Akt kinase activities by VIIb was assessed using a PI3Kα (p110α/p85) assay kit (Catalog #79781; BPS Bioscience, Inc, San Diego, CA, USA), PI3Kγ (p110γ/PIK3R5) assay kit (Catalog #79803; BPS Bioscience, Inc, San Diego, CA, USA), and Akt Kinase Activity assay kit (ab139436; Abcam, Cambridge, UK) following the manufacturer’s instructions as described previously. The results were expressed as IC50 values using dose–response curves and linear regression equations.

Experiment [3] deals with Cyclin D1, p-PI3K, p-Akt. Briefly: Western blot in MCF-7 cells. Particulars: MCF-7, IC50, 48 h, vs control untreated cells. The format is cell-based, human. The text has this:
Cyclin D1 activity is essential for the G1 to S phase transition. Moreover, the PI3K/Akt axis is crucial for cell growth and apoptosis. The effects of VIIb on Cyclin D1 and the PI3K/Akt pathway in MCF-7 cells was investigated adopting reported procedures. […] Herein, Western blot results confirmed our previous findings, highlighting the ability of the novel compound, VIIb, to inhibit the PI3K/Akt signaling pathway. […] Cyclin D1 is a proto-oncogene and a major regulator of cell cycle progression. In addition, Cyclin D1 overexpression has been linked to both breast tumorigenesis and tumor progression as well as to the development of endocrine resistance in breast cancer cells.
Whole-cell protein lysates obtained from both control as well as VIIb-treated (IC50 (µM), for 48 h) MCF-7 cells were resolved by SDS-PAGE, and then immunoblotting was conducted with antibodies against cyclin D, p-Akt, and p-PI3K compared to the housekeeping protein β-Actin.
Western blot analysis was conducted using the following primary antibodies: anti-p-Akt (1:5000; ab81283), anti-Cyclin D1 (1:1000; ab226977), anti-p-PI3K (1:1000; ab278545), and anti-beta-actin (1:1000; ab8227). Firstly, VIIb-treated and untreated cells were rinsed with PBS, and then cold lysis buffer was added to induce cell lysis. After centrifugation, the supernatants were collected, and harvested proteins were quantified by Bradford assay and then resolved on SDS-PAGE followed by electroblotting onto polyvinylidene fluoride membranes. Later, membrane blocking was conducted using 5% skimmed milk in 0.1% Tween-20 in PBS (PBST). Then membranes were incubated with the aforementioned primary antibodies at 4 °C. Following 12-h incubation, the membranes were soaked in PBST thrice followed by 1-h incubation with appropriate secondary antibodies. Antibodies were supplied from Abcam (Cambridge, UK). The signals were visualized with a chemiluminescence ECL kit (Perkin Elmer, Waltham, MA, USA) following the manufacturer’s instructions, and images were obtained using a Biorad Imager.
For orientation: A western blot detects proteins with antibodies after separation by electrophoresis.

T1 sequence (P48736 whole entry): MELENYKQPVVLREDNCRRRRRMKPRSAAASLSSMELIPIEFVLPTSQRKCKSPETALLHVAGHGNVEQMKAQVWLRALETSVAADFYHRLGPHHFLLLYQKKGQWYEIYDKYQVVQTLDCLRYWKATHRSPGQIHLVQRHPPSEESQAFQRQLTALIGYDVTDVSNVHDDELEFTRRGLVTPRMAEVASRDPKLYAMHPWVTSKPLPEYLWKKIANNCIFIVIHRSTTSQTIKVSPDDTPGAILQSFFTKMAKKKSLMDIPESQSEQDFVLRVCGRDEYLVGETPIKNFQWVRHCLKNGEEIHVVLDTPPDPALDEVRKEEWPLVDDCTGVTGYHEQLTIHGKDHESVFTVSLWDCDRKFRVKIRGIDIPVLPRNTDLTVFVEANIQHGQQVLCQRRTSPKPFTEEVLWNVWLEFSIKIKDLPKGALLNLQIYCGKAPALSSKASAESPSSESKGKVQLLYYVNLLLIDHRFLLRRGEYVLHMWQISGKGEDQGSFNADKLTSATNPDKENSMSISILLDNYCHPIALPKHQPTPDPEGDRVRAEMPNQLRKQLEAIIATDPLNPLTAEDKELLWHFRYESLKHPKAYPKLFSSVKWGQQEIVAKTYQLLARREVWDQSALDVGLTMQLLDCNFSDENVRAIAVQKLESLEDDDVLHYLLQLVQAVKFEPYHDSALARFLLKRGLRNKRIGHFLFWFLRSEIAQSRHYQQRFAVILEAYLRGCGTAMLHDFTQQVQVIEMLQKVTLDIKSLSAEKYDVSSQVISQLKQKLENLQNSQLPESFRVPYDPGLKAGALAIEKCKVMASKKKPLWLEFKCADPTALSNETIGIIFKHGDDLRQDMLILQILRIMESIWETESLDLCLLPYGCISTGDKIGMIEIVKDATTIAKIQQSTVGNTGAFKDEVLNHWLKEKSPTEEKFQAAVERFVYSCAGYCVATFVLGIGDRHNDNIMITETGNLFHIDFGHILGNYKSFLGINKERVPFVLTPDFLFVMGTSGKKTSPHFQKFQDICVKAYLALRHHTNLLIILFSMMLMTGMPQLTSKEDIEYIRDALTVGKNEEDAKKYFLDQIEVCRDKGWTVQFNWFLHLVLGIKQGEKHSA
T1 sequence (Q8WYR1 whole entry partner): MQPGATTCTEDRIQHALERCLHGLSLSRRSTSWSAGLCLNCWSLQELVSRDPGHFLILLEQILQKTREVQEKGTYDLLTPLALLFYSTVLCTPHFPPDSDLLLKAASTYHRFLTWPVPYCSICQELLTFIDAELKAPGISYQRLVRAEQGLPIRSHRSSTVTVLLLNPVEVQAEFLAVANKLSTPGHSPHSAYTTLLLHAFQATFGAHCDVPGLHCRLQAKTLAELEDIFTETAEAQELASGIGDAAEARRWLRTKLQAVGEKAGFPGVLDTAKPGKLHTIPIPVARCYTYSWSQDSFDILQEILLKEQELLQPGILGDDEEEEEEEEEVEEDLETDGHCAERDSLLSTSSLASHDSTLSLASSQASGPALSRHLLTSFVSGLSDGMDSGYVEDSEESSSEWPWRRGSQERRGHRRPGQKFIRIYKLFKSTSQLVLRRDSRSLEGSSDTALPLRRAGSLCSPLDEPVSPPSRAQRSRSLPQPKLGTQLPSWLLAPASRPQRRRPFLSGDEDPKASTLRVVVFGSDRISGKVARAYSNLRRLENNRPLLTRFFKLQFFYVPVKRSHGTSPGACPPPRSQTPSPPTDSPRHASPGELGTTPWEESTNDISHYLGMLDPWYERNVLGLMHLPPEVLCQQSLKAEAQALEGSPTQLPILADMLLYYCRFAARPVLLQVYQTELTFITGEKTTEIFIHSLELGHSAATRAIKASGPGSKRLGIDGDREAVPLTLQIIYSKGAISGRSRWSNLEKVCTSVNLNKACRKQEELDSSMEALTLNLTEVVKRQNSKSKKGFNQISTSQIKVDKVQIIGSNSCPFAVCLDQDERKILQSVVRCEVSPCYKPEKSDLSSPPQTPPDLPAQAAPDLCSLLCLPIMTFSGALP

On to `C/C(=N/N=C1/SCC(=O)N1C(=O)c1ccccc1)c1c(O)ccc2c(C)cc(=O)oc12` [VIIb], for which the “Caspase-9 Level” value in experiment [1] was found to be 21.61 ± 0.14 ng/mL. Besides, the IC50 (as a rule, the concentration that gives 50% inhibition) in experiment [2] worked out at 34.7 ± 1.88 µM. Also, in experiment [3], the “level of Cyclin D1” value is recorded as “effectively suppressed”, the “level of p-Akt” value is “effectively suppressed” and the “level of p-PI3K” value is “effectively suppressed”.
